Usually Km stands for the substrate concentration at which the rate is half of its maximum.

Data on two molecules can be found in PMC10401832 (Biotechnology for Biofuels and Bioproducts, 2023).

Data set [1] addresses T1, GsAlaDH (Geobacillus stearothermophilus, UniProt P17557).
T1 construct: gene ald; possible hexamer (model)
Briefly: spectrophotometric NADH change at […] nm. The data set is classed as biochemical. The conditions noted are these: oxidative deamination, NAD+, Na2CO3-NaHCO3 pH 10.0; Table 1 heads this block 'Reductive reaction' but text assigns it to L-alanine.

Substrate in data set [2]: CC(=O)C(=O)O
Put plainly: purified protein. The data set is classed as biochemical, Bacillus subtilis. The conditions noted are these: reductive amination, NADH and NH4Cl, Tris-HCl pH 8.0, Table 1 heads this block 'Oxidative reaction' but text assigns it to pyruvate.

T1 sequence (P17557 whole entry): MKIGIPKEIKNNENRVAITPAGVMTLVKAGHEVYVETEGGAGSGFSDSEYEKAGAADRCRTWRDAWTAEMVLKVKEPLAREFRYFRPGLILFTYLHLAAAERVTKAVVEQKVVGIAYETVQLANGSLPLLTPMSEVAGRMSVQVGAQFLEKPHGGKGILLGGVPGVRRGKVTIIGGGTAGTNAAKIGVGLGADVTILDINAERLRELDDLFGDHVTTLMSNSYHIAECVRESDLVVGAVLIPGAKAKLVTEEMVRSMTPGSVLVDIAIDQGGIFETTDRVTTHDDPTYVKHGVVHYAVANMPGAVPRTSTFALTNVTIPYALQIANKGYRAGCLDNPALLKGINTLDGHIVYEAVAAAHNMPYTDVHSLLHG

With `C[C@H](N)C(=O)O` [L-alanine], in data set [1], the Km is 810 ± 250 µM.

B1: BsAlaDH (Bacillus subtilis subsp. subtilis str. 168) (protein)
chain: MIIGVPKEIKNNENRVALTPGGVSQLISNGHRVLVETGAGLGSGFENEAYESAGAEIIADPKQVWDAEMVMKVKEPLPEEYVYFRKGLVLFTYLHLAAEPELAQALKDKGVTAIAYETVSEGRTLPLLTPMSEVAGRMAAQIGAQFLEKPKGGKGILLAGVPGVSRGKVTIIGGGVVGTNAAKMAVGLGADVTIIDLNADRLRQLDDIFGHQIKTLISNPVNIADAVAEADLLICAVLIPGAKAPTLVTEEMVKQMKPGSVIVDVAIDQGGIVETVDHITTHDQPTYEKHGVVHYAVANMPGAVPRTSTIALTNVTVPYALQIANKGAVKALADNTALRAGLNTANGHVTYEAVARDLGYEYVPAEKALQDESSVAGA
notes: primers imply N-term MIIGVP, C-term SVAGA; about 45-55 kDa; possible hexamer (model)
As to B1, in data set [2], the Km turned out to be 70 ± 30 µM.
